Experimental data published in patent publication US4748161A, “Triterpenyl esters of organic acids and hypolipidemic agents composed of them” (Amano Pharmaceutical Co., Ltd., priority 1984, dated 1988).
Read-outs that look alike come from different tables or passages of the source.

Key:
[1] = test system: serum lipids and serum lipid hydroperoxide; assay: Pharmacological test method B for anti-hyperlipidemic activity (serum lipids, 4 weeks feeding); format: in vivo, male Wistar strain rats; design: AI Diff.: unit not given here; settings: for AI [(TC - HDL-C)/(HDL-C)] / HDL-C in serum / LPO in serum / PL in serum / TC in serum / TG in serum: 1% in hyperlipidemic diet, 4 weeks; for change in vivo at 1 % in diet: Rattus norvegicus, po, 672 h; for change in vivo at 1 % in diet / AI Diff. / HDL-C Diff. / LPO Diff. / PL Diff. / TC % of diff. / TC Diff. / TG Diff.: versus control group; for HDL-C rise compared with normal diet group: versus normal diet group; for TG % of diff. (Table 20) / TG Diff. (Table 20): Table 20, versus control group
Description: Pharmacological test method B for anti-hyperlipidemic acitivity (the term "method B" was used in the present specification)
(§1) Male Wistar strain rats (100±1 g, each 8 rats were formed into a group except that the control group fed with a hyperlipidemic diet was formed of 16 rats) were used as test animals. A powdery diet (CE-2, supplied by Clea Japan, Inc.) was used as ordinary diet. The hyperlipidemic diet was prepared by fortifying the ordinary diet with cholesterol (1%) and cholic acid (0.5%). Each test compound (1%) for administration was admixed with the hyperlipidemic diet. Each two rats were kept in a cage and given the prescribed diet and water ad libitum. Thus the rats were fed for 4 weeks at a constant temperature of 23±1° C. and a constant R.H. of 55±5%. Finally, the rats were fasted from food except water for 16 hours (from 4 p.m. of the 28th test day to 8 a.m. of the 29th test day), and under anesthesia with pentbarbital sodium (tradename: Nembutal), blood was taken from each rat through the descending abdominal arota. Then, TC, HDL-C, TG, PL, and LPO in the serum were measured in the following manner.
A TC kit-K (supplied by Nippon Shoji Kaisha, Ltd.) was used. The principle of this determination is as follows: The ester of cholesterol in the serum is hydrolyzed with cholesterol-ester hydrolase into free cholesterol and fatty acids. All the free cholesterol is oxidized with cholesterol oxydase to form Δ^4 -cholestenone and hydrogen peroxide. Phenol and 4-aminoantipyrin are oxidatively condensed together by the formed hydrogen peroxide and peroxydase. The produced red quinone coloring matter is measured by colorimetry for absorbance at 500 nm using a spectrophotometer, thereby determining the TC:
The color-developing liquid (3.0 ml) is well mixed with the sample serum (0.02 ml). The mixture once heated at 37° C. for 15 minutes, is measured for absorbance at 500 nm with a spectrophotometer. The found absorbance is denoted by EA. On the other hand, the color-developing liquid (3.0 ml) is well mixed with the standard solution. The mixture is treated and measured for absorbance at 500 nm in the same manner as the above. This found absorbance is denoted by ES. Both EA and ES are determined with reference to the value of the blank test conducted using the color-developing liquid (3.0 ml) alone. [formula]
An HDL-C kit-N (supplied by Nippon Shoji Kaisha, Ltd.) was used. […] (VLDL) and lo density lipoprotein (LDL) in the serum is precipitated by the action of heparin. The precipitate is separated by centrifugation. High density lipoprotein (HDL) is dissolved in the separated supernatant. Esters of cholesterol in this fraction is hydrolyzed with cholesterol-ester hydrolase into free cholesterol and fatty acids. All the free cholesterol is oxidized with cholesterol oxydase to form Δ^4 -cholestenone and hydrogen peroxide. Phenol and 4-aminoantipyrine are oxidatively condensed together by the formed hydrogen peroxide and peroxydase. The produced red quinone coloring matter is measured by colorimetry for absorbance at 500 nm using a spectrophotometer, thereby determining the HDL-C.
A PL kit-K (supplied by Nippon Shoji Kaisha, Ltd.) was used for the determination. Lecithin, sphingomyelin, and lysolecithin are decomposed by phospholipase D into choline and phosphatidic acid, N-acylsphingosyl phosphate, or lysophosphatidic acid, respectively. The resulting choline is quantitatively decomposed by choline oxydase into hydrogen peroxide and betaine. With this hydrogen peroxide, and aid of peroxydase, phenol and 4-aminoantipyrin are condensed into red quinone pigment, then the absorbance at 500 nm of which is measured with a spectrophotometer, thereby determining the PL. […]

[2] = Body weight of rats in method B; design: species or system male Wistar strain rats; settings: rat, in vivo
Description: as §1

Compound | AI [(TC - HDL-C)/(HDL-C)] [1] | HDL-C in serum [1] | LPO in serum [1] | PL in serum [1] | TC in serum [1] | TG in serum [1] | Body weight during feed period, 1st day [2] | Body weight during feed period, 8th day [2] | Body weight during feed period, 15th day [2] | Body weight during feed period, 22nd day [2] | change in vivo at 1 % in diet ([1]; read-out: AI % of diff.) | change in vivo at 1 % in diet ([1]; read-out: HDL-C % of diff.) | change in vivo at 1 % in diet ([1]; read-out: LPO % of diff.) | change in vivo at 1 % in diet ([1]; read-out: PL % of diff.) | change in vivo at 1 % in diet ([1]; read-out: TG % of diff.) | AI Diff. [1] | HDL-C Diff. [1] | LPO Diff. [1] | PL Diff. [1] | TG Diff. [1] | also measured
C=C(CCC(C)C1CCC2(C)C3CCC4C(C)(C)C(OC(=O)C(C)=Cc5ccc(N)c(OC)c5)CCC45CC35CCC12C)C(C)C (stereo not drawn) [Example 191, 24-Methylenecycloartanyl ester of 4-amino-3-methoxy-α-methylcinnamic acid] | 5.634 | 28.4 mg/dL | 2.08 nmol/mL | 117.3 mg/dL | 188.4 mg/dL | 60.4 mg/dL | 104 ± 3.7 g | 142 ± 9.6 g | 188 ± 12.9 g | 239 ± 14.9 g |  |  |  |  |  |  |  |  |  |  | Body weight during feed period, 28th day [2]: 268 ± 21.7 g; Body weight just before blood sampling, 29th day [2]: 257 ± 20.6 g
COc1cc(C=C(C)C(=O)OC2CCC34CC35CCC3(C)C(C(C)CCC(C)=C(C)C)CCC3(C)C5CCC4C2(C)C)ccc1O (stereo not drawn) [Example 116, cyclobranyl ester of 4-hydroxy-3-methoxy-α-methylcinnamic acid] | 1.282 | 61.4 mg/dL | 2.11 nmol/mL | 97.4 mg/dL | 140.1 mg/dL | 54.0 mg/dL | 106 ± 5.9 g | 146 ± 10.0 g | 193 ± 17.5 g | 244 ± 15.8 g | -94.1% | 355% | -25.2% | -30.5% | -10.8% | -20.48 | +47.9 mg/dl | -0.71 nmol/mL | -42.7 mg/dL | -6.1 mg/dL | TC % of diff. [1]: -54.4%; TC Diff. [1]: -167.2 mg/dL; HDL-C rise compared with normal diet group [1]: remarkable rises; Body weight during feed period, 28th day [2]: 273 ± 20.4 g; Body weight just before blood sampling, 29th day [2]: 260 ± 19.0 g
C=C(CCC(C)C1CCC2(C)C3CCC4C(C)(C)C(OC(=O)C(C)=Cc5ccc(O)c(OC)c5)CCC45CC35CCC12C)C(C)C (stereo not drawn) [Example 118, 24-methylenecycloartanyl ester of 4-hydroxy-3-methoxy-α-methylcinnamic acid] | 1.943 | 47.4 mg/dL | 2.08 nmol/mL | 98.3 mg/dL | 139.5 mg/dL | 51.4 mg/dL | 106 ± 3.4 g | 147 ± 9.2 g | 192 ± 17.8 g | 243 ± 15.4 g | -91.9% | 251% | -26.2% | -29.8% | -9% | -19.82 | +33.9 mg/dl | -0.74 nmol/mL | -41.8 mg/dL | -5.1 mg/dL | TC % of diff. [1]: -54.6%; TC Diff. [1]: -168.2 mg/dL; HDL-C rise compared with normal diet group [1]: remarkable rises; Body weight during feed period, 28th day [2]: 274 ± 18.4 g; Body weight just before blood sampling, 29th day [2]: 259 ± 20.4 g
COc1cc(C=C(C)C(=O)OC2CCC34CC35CCC3(C)C(C(C)CCC=C(C)C)CCC3(C)C5CCC4C2(C)C)ccc1O (stereo not drawn) [Example 114, cycloartenyl ester of 4-hydroxy-3-methoxy-α-methylcinnamic acid] | 4.711 | 24.2 mg/dL | 2.04 nmol/mL | 96.7 mg/dL | 138.2 mg/dL | 39.0 mg/dL | 105 ± 3.3 g | 145 ± 9.5 g | 194 ± 18.0 g | 247 ± 16.6 g | -78.4% | 79.3% | -27.7% | -31% | -31% | -17.05 | +10.7 mg/dl | -0.78 nmol/mL | -43.4 mg/dL | -17.5 mg/dL | TC % of diff. [1]: -55.0%; TC Diff. [1]: -169.1 mg/dL; Body weight during feed period, 28th day [2]: 277 ± 14.9 g; Body weight just before blood sampling, 29th day [2]: 265 ± 14.5 g
CCCOc1ccc(N)cc1C=C(C)C(=O)OC1CCC23CC24CCC2(C)C(C(C)CCC=C(C)C)CCC2(C)C4CCC3C1(C)C (stereo not drawn) [Example 195, Cycloartenyl ester of 5-amino-2-propoxy-α-methylcinnamic acid] |  |  |  |  |  |  |  |  |  |  | -88.3% | 211% | -37.2% | -34.2% | -28.9% | -22.22 | +33.7 mg/dl | -1.29 nmol/mL | -60.4 mg/dL | -23.5 mg/dL | TG % of diff. (Table 20) [1]: -53.3%; TG Diff. (Table 20) [1]: -223.1 mg/dL; HDL-C rise compared with normal diet group [1]: remarkable rises
CC(C)=CCCC(C)C1CCC2(C)C3CCC4C(C)(C)C(OC(=O)C(C)=Cc5ccc(N)cc5)CCC45CC35CCC12C (stereo not drawn) [Example 205, Cycloartenyl ester of p-amino-α-methylcinnamic acid] | 4.144 | 37.4 mg/dL | 2.02 nmol/mL | 113.1 mg/dL | 192.4 mg/dL | 60.3 mg/dL | 105 ± 3.7 g | 142 ± 9.8 g | 188 ± 13.2 g | 238 ± 19.8 g |  |  |  |  |  |  |  |  |  |  | Body weight during feed period, 28th day [2]: 267 ± 20.4 g; Body weight just before blood sampling, 29th day [2]: 256 ± 19.2 g
C=C(CCC(C)C1CCC2(C)C3CCC4C(C)(C)C(OC(=O)C(C)=Cc5ccc(OC(=O)CC)c(OC)c5)CCC45CC35CCC12C)C(C)C (stereo not drawn) [Example 117, 24-methylenecycloartanyl ester of 3-methoxy-4-propionyloxy-α-methylcinnamic acid] |  |  |  |  |  |  |  |  |  |  | -64.3% | 63.1% | -24.5% | -28.3% | -21.6% | -16.17 | +10.1 mg/dl | -0.85 nmol/mL | -50.0 mg/dL | -17.6 mg/dL | TG % of diff. (Table 20) [1]: -37.7%; TG Diff. (Table 20) [1]: -157.9 mg/dL
CCC(=O)Oc1ccc(C=C(C)C(=O)OC2CCC34CC35CCC3(C)C(C(C)CCC=C(C)C)CCC3(C)C5CCC4C2(C)C)cc1OC (stereo not drawn) [Example 113, cycloartenyl ester of 3-methoxy-4-propionyloxy-α-methyl cinnamic acid] |  |  |  |  |  |  |  |  |  |  | -63.5% | 55.6% | -12.1% | -29.7% | -25.7% | -15.96 | +8.9 mg/dl | -0.42 nmol/mL | -52.5 mg/dL | -20.9 mg/dL | TG % of diff. (Table 20) [1]: -39.4%; TG Diff. (Table 20) [1]: -164.7 mg/dL
